# According to US6486199B1, “Spiro and dispiro 1,2,4-trioxolane antimalarials” (Medicines for Malaria Venture MMV International Centre …, priority 2001, dated 2002):
# Read-outs that look alike come from different tables or passages of the source. Marks after values point to notes of the source that are not given here.
# How the values were obtained:
# [1] = test system: ANKA strain of P. Berghei; test: single dose STI in vivo screen in infected Moro SPF mice; details: for antimalarial activity, overall assessment: overall judgement of in vitro and in vivo data of Table 2
# NB2a cell line = test: neurotoxicity against the NB2a cell line; assay type: cell-based
# [2] = test system: 21-day-old schistosomules of Schistosoma mansoni; test: effect on 21-day-old schistosomules in mice; assay type: in vivo; details: single 200 mg/kg per os
# Procedure: […] Each group was treated per os with OZ compounds at a single dose of 200 mg/kg. Untreated mice served as the control. All groups were killed 4 weeks after treatment and the liver and intestine were removed and separated. The liver and intestine were compressed and alive male and female worms could be seen and counted. The effect of the compounds was evaluated by mean total and female worm burden.
# [3] = test system: adult schistosomes (49-day-old) of Schistosoma mansoni; test: effect on adult schistosomes (49-day-old) in mice; assay type: in vivo; details: single 400 mg/kg per os
# Procedure: Mice were infected with 100 Schistosoma mansoni cercariae […]. Each group was treated per os with OZ compounds at a single dose of 400 mg/kg. Untreated mice served as the control. All groups were killed 4 weeks after treatment and the liver and intestine were removed and separated. The liver and intestine were compressed and alive male and female worms could be seen and counted.
# [4] = differential scanning calorimetry (DSC), thermal stability; assay type: physicochemical; details: thermal decomposition
# [5] = test system: chloroquine-resistant K1 strain of P. falciparum; test: in vitro screen against chloroquine-resistant K1 strain of P. falciparum; assay type: cell-based; details: for IC50: Plasmodium falciparum
# [6] = test system: chloroquine-sensitive NF54 strain of P. falciparum; test: in vitro screen against chloroquine-sensitive NF54 strain of P. falciparum; assay type: cell-based; details: in vitro, NF54 strain; for IC50: Plasmodium falciparum, read-out: IC50 (ng/ml) NF54
# P. berghei [7] = test: 1-day Peters test against P. berghei in vivo; details: for ED50 / ED90: Plasmodium berghei, 24 h; for ED90: read-out: P. berghei (1 day) ED90 po
# P. berghei [8] = test: 4-day Peters test against P. berghei in vivo; details: 4 day; for ED50: Plasmodium berghei, 96 h
# parasitemia = test: onset of drug action and recrudescence after single oral dose; assay type: in vivo
# Procedure: The reduction of parasitemia was monitored 12 h after treatment, and the time of recrudescence was assessed by daily blood smears for 14 days, followed by intermittent assessment for up to 30 days.
# Schistosoma mansoni = test: treatment of mice infected with Schistosoma mansoni cercaria, six weekly oral doses; assay type: in vivo; details: artemether at doses four times higher than OZ05; arteflene 6×600 mg/kg p.o.; fenozan 6×100 mg/kg p.o.
# Excerpt: Mice (MORO SPF female 18-20g) were infected with 90 (±10) cecaria of Schistosoma mansoni subcutaneously.
# [9] = percent reduction in parasitemia day 3 post-infection, single 100 mg/kg po
# [10] = percent reduction in parasitemia day 3 post-infection, single 100 mg/kg sc
# [11] = single 100 mg/kg po, survival to day 30 = cure
# [12] = single 100 mg/kg sc, survival to day 30 = cure
# [13] = in vitro, K1 strain, read-out: IC50 (ng/ml) K1
# [14] = percent reduction in parasitemia day 3 post-infection, single 10 mg/kg po
# [15] = percent reduction in parasitemia day 3 post-infection, single 10 mg/kg sc
# [16] = 1 day, po, read-out: P. berghei (1 day) ED50 po
compound,measurement,setting,value
"C1C2CC3CC1CC(C2)C31OOC2(O1)C1CC3CC(C1)CC2C3 (stereo not shown) [OZ04, Adamantane-2-spiro-3′-1′,2′,4′-trioxolane-5′-spiro-2″-adamantane]","antimalarial activity, overall assessment",[1],completely inactive
same,Activity (%) po,[1]; [9],0/0%
same,Activity (%) sc,[1]; [10],0/0%
same,Survival (days) po,[1]; [11],5.3/5.3 days
same,Survival (days) sc,[1]; [12],5.3/5.3 days
same,IC50,NB2a cell line; NB2a cell line,44 µM
same,FWR (%),[2]; female worm reduction rate,7%
same,Mean female worm burden,[2]; mean ± standard deviation,11.6 ± 3.2^a
same,TWR (%),[2]; total worm reduction rate,7%
same,Percentage of dead worm,[3],0
same,Total dead worm,[3],0
same,TWR (%),[3]; total worm reduction rate,0%
same,Mean total worm burden,[3]; x ± SD,37.6 ± 13.4
same,Tm dec. (° C.),[4],150.8 °C
"CCOC(=O)CCC1CCCCC12OOC1(CCCCC1)O2 (stereo not shown) [OZ07, 1-[2-(Ethoxycarbonyl)ethyl]-7,14,15-trioxadispiro[5.1.5.2]pentadecane]",IC50,[5]; [13],66 ng/mL
same,IC50,[6],49 ng/mL
same,"antimalarial activity, overall assessment",[1],less active
same,Activity (%) po,[1]; [9],0/0%
same,Activity (%) sc,[1]; [10],0/0%
same,IC50,NB2a cell line,27 µM
"CCOC(=O)CCC1CCCCC12OOC1(O2)C2CC3CC(C2)CC1C3 (stereo not shown) [OZ08, Adamantane-2-spiro-3′-6′-[2′-(ethoxycarbonyl)ethyl]-1′,2′,4′-trioxaspiro[4.5]decane]","antimalarial activity, overall assessment",[1],more active
same,IC50,NB2a cell line; NB2a cell line,42 µM
"C1CCC2(CC1)OOC1(O2)C2CC3CC(C2)CC1C3 (stereo not shown) [OZ03, Adamantane-2-spiro-3′-1′,2′,4′-trioxaspiro[4.5]decane]",IC50,"[5]; K1, read-out: IC50 (ng/ml) K1",1.2 ng/mL
same,"antimalarial activity, overall assessment",[1],more active
same,Activity (%) po,[1]; [14],94%
same,Activity (%) sc,[1]; [15],100%
same,Activity (%) po,[1]; [9],100/100%
same,Activity (%) sc,[1]; [10],100/100%
same,Survival (days) po,[1]; single 10 mg/kg po,7.2 days
same,Survival (days) sc,[1]; single 10 mg/kg sc,11.9 days
same,Survival (days) po,[1]; [11],14.3 days
same,Survival (days) sc,[1]; [12],28 days
same,P. berghei (1 day) ED90 sc,"P. berghei [7]; 1 day, sc",2.2 mg/kg
same,ED50,P. berghei [7]; [16],5 mg/kg
same,ED90,"P. berghei [7]; 1 day, po",8.8 mg/kg
same,ED50,"P. berghei [7]; 1 day, sc, read-out: P. berghei (1 day) ED50 sc",0.7 mg/kg
same,P. berghei (4 day) ED90 po,P. berghei [8]; po,2.7 mg/kg
same,P. berghei (4 day) ED90 sc,P. berghei [8]; sc,1.1 mg/kg
same,ED50,"P. berghei [8]; po, read-out: P. berghei (4 day) ED50 po",1 mg/kg
same,ED50,"P. berghei [8]; sc, read-out: P. berghei (4 day) ED50 sc",0.6 mg/kg
same,IC50,NB2a cell line,13 µM
same,duration of action compared with artemether,parasitemia; single 100 mg/kg po,comparable
same,Recrudescence (>5% parasitemia) occurs on day,parasitemia; single 100 mg/kg po on day +3 post-infection,7 days
"C[C@@H]1C(=O)C[C@H]2C[C@@H]1OO[C@@]2(C)/C=C\c1ccc(C(F)(F)F)cc1C(F)(F)F [arteflene, reference compound]",activity in the same assay,Schistosoma mansoni,inactive
fenozan [reference compound],IC50 (ng/ml) K1,"[5]; in vitro, K1 strain",3.2 ng/mL
same,IC50 (ng/ml) NF54,[6],3.0 ng/mL
same,Activity (%) po,[1]; [14],99.95%
same,Activity (%) sc,[1]; [15],100%
same,Survival (days) po,[1]; single 10 mg/kg po,8.6 days
same,Survival (days) sc,[1]; single 10 mg/kg sc,13.4 days
same,P. berghei (1 day) ED50 po,"P. berghei [7]; 1 day, po",1.7 mg/kg
same,P. berghei (1 day) ED90 po,"P. berghei [7]; 1 day, po",4.3 mg/kg
same,P. berghei (1 day) ED50 sc,"P. berghei [7]; 1 day, sc",1.7 mg/kg
same,P. berghei (1 day) ED90 sc,"P. berghei [7]; 1 day, sc",3.2 mg/kg
same,oral activity based on po ED50/ED90 values,"P. berghei [7]; po, ranking among trioxolanes and controls",only slightly less orally active than OZ11
same,P. berghei (4 day) ED50 po,P. berghei [8]; po,1.9 mg/kg
same,P. berghei (4 day) ED90 po,P. berghei [8]; po,2.7 mg/kg
same,P. berghei (4 day) ED50 sc,P. berghei [8]; sc,1.1 mg/kg
same,P. berghei (4 day) ED90 sc,P. berghei [8]; sc,2.3 mg/kg
same,activity in the same assay,Schistosoma mansoni,inactive
"C[C@H]1[C@@H](O)O[C@@H]2O[C@@]3(C)CC[C@H]4[C@H](C)CC[C@@H]1[C@@]24OO3 [Dihydroart, dihydroartemisinin, reference compound]",IC50,[5]; [13],0.22 ng/mL
same,IC50,[6],0.23 ng/mL
same,inhibition in vivo at 10 mg/kg,"[1]; Plasmodium berghei, 72 h, percent reduction in parasitemia day 3 post-infection, single 10 mg/kg po, read-out: Activity (%) po",80%
same,Survival (days) po,[1]; single 10 mg/kg po,6.8/NA days
same,ED50,P. berghei [7]; [16],2.9 mg/kg
same,ED90,"P. berghei [7]; 1 day, po",12 mg/kg
same,IC50,NB2a cell line,0.22 µM
